This note sets out measurements from patent publication US11129845B2, “Compositions and methods for the delivery of nucleic acids” (CASE WESTERN RESERVE UNIVERSITY, priority 2014, dated 2021).

The nature of data set [1]: Ribogreen siRNA entrapment efficiency of ECO/siRNA nanoparticles. In kind it is physicochemical. The source says: A Ribogreen assay (Molecular Probes) was used to quantify the entrapment efficiency of siRNA within the ECO/siRNA nanoparticles. […] Free siRNA following particle formation was detected using a SpectraMax microplate reader (Molecular Devices) with an excitation of 500 nm and emission of 525 nm.

Data set [2] has as its system HT29 colon carcinoma cells. Put plainly: Cellular uptake of Alexa Fluor 488-siRNA via flow cytometry. In kind it is cell-based, human. To be noted: HT29, N/P=18, 4 h, 100 nM Alexa Fluor 488-siRNA. As to the method: Flow cytometry was used to investigate the cellular uptake of our delivery system in HT29 colon carcinoma cells. All carriers in the library were formulated into nanoparticles by condensing Alexa Fluor 488-labeled siRNA at the optimal N/P ratio determined by the above luciferase knockdown studies. Approximately 50,000 cancer cells were seeded in 6-well plates and allowed to grow until 30-50% confluence was reached. The cancer cells were transfected with a 100 nM siRNA dose in serum-free media. After 4 h, the transfection media were aspirated and the cells were washed twice with PBS. The cells were then trypsinized, collected, and fixed with 2% paraformaldehyde in PBS, prior to flow cytometric analysis.

Data set [3] can be described thus: Zeta-potential of siRNA-lipid complexes (Malvern Zetasizer). In kind it is physicochemical. The protocol: The cationic lipid carriers are dissolved in ethanol at a stock concentration of 2.5 mM, while all siRNA is reconstituted in nuclease-free water at a 0.25 μg/μL (18.8 μM) concentration. Nanoparticles are formulated by mixing the carriers with siRNA for a period of 30 min in RNase-free phosphate buffer saline (PBS) at pre-specified N/P ratios (N=number of protonable amines in lipid, P=number of phosphate groups in the siRNA). In preparing the lipoplexes, proper dilutions were made such that the volume ratio of ethanol:water was kept constant at 1:20. Minimizing the amount of ethanol is important because it is effective in dissolving lipids, thus inhibiting particle formation. The diameters (as determined by dynamic light scattering) and zeta potentials of all nanoparticles were analyzed using a Malvern Zetasizer instrument at pH=7.4. siRNA encapsulation efficiency was calculated using a RiboGreen fluorescence-based assay from Invitrogen, designed specifically for detection of free RNA at […] wavelengths of 480 and 520 nm, respectively. Nanoparticles were created with all carriers in the library so that final siRNA concentrations were 1.6 μg/mL. A linear standard curve was utilized to calculate the encapsulation efficiencies from signal intensities measured by a SpectraMax microplate reader (Molecular Devices).

Data set [4] has as its system CHO-GFP cells. The format is cell-based, Chinese hamster. The protocol:
Cytotoxicity of the carriers was investigated using an MTT colorimetric assay measuring cellular metabolic activity (Invitrogen). The transfection procedure was identical to that presented for the reporter knockdown studies above, except for the fact that 96 well plates were utilized instead, and seeded with 10,000 cells per well. After transfection, the cells were allowed to grow for an additional 48 h. At that point, they were incubated with MTT for 4 h, followed by an additional 4 hour incubation with an SDS-HCl solution to dissolve any insoluble formazan crystals formed by the reduction of MTT by NAD(P)H-dependent enzymes in the cells. The absorbance of each sample was measured at 570 nm using a SpectraMax microplate reader. Cellular viability was calculated by averaging the signal intensities over three replicates and then normalizing the results relative to the negative control data.
The RNAi capabilities of each carrier were investigated by analyzing the silencing of a luciferase (Luc) reporter in HT29 cancer cells after anti-Luc siRNA therapy. To perform this study, we seeded HT29-Luc cells in 12 well plates at a density of 20,000 cells per well. […] Luciferase expression was determined using a Spectra Max luminometer upon the addition of a light-inducing substrate to the collected protein. […]

The subject of data set [5] is HT29-Luc cells. Put plainly: Live-cell confocal imaging of intracellular siRNA release. In kind it is cell-based, human. As to the method: Live-cell confocal imaging was utilized to image the intracellular release and dispersion of siRNA following transfection with the lipid carrier that performed best during the reporter knockdown studies. Approximately 50,000 HT29-Luc cells were seeded onto glass-bottom dishes (MatTek—Ashland, Mass.). Once 40% confluency was established, the cells were stained with 75 nM LysoTracker Red DND-99 (Invitrogen) for 30 min in normal growth medium. Afterwards, the cells were transfected with 100 nM Alexa Fluor 488-labeled anti-Luc siRNA in fresh serum-free media using the designed cationic lipid agent that performed the best in the above reporter knockdown experiments. Imaging commenced 5 min post-transfection using an Olympus FV1000 confocal microscope, and continued periodically over the first 2 h. Throughout the course of the study, all cells were kept alive on the microscope in a humidified weather station under normal gas conditions (5% CO2). Another image was acquired after 24 h following re-administration of the LysoTracker stain.
Confocal microscopy was utilized to perform a time course study that analyzed the uptake and intracellular release kinetics of siRNA using the ECO delivery platform. Intracellular release and dispersion of siRNA is essential in RNA interference since the RNAi machinery is found in the cytosol. The images in FIG. 27 reveal that upon cellular uptake, the ECO nanoparticles are able to facilitate the escape of its siRNA payload from the endocytic pathway within the first 2 hours after transfection, avoiding lysosomal degradation. Such results are in congruence with the hemolytic activity data showing the membrane disruptive properties of the delivery system in pH environments characteristic of both endosomes and lysosomes.

SMILES strings stand for the structures.

Turning to `CCCCCCCC/C=C\CCCCCCCC(=O)N[C@@H](CS)C(=O)NCCNC(=O)CCN(CCN)CCC(=O)NCCNC(=O)[C@H](CS)NC(=O)CCCCCCC/C=C\CCCCCCCC` [ECO, (1-aminoethyl)iminobis[N-(oleicylcysteinyl-1-amino-ethyl)propionamide]], the “siRNA entrapment (RiboGreen)” value in data set [1] (N/P=6) was found to be 82.1±4.3%; in data set [1] (N/P=20), 98.7±5.0%. In data set [2], the “cellular uptake, mean fluorescence intensity (MFI)” value was determined as 2571±90. Further, the “Zeta-potential of siRNA-lipid complexes” value is recorded as −32.20 ± 0.90 mV in data set [3] (pH = 7.4, N/P = 2); −16.84 ± 1.58 mV in data set [3] (pH = 7.4, N/P = 5); 28.82 ± 1.03 mV in data set [3] (pH = 7.4, N/P = 8); 25.68 ± 2.02 mV in data set [3] (pH = 7.4, N/P = 10); 25.19 ± 2.32 mV in data set [3] (pH = 7.4, N/P = 15). Besides, the “cell viability (MTT)” value in data set [4] is recorded as “greater than 85%”. The “time to escape of siRNA payload from the endocytic pathway” value is not above 90 min in data set [5] (HT29-Luc, after transfection) and not above 120 min in data set [5] (after transfection (Example 3)). Moreover, in data set [5] (HT29-Luc, post-transfection), the “time to evade lysosomal degradation” value was not above 1 h.
